Legend:
[1] = target: T1, HIV-1 RT wild-type (WT) (Human immunodeficiency virus type 1 group M subtype B, UniProt P03366); experiment: Reverse transcriptase (RT) assay, wild-type enzyme; format: biochemical
T1 construct: an HIV RT clone pKRT2 containing only the RT p66 gene regulated by the lac operon/trc promoter; made in house; host or cells: E. coli JM109, vector pKK233-2
Excerpt: (§1) Among the enzymes for which Human Immunodeficiency Virus (HIV-1) encodes is a reverse transcriptase (1), so-named because it transcribes a DNA copy from an RNA template. This activity can be quantitatively measured in a cell-free enzyme assay and is based upon the observation that reverse transcriptase is able to use a synthetic template poly r(C) primed with a biotinylated oligo d(G) to transcribe a radio-labelled DNA strand utilising 3H-dGTP as a substrate. The assay described below utilises the wild-type enzyme (which is the predominant form of the enzyme observed in patients infected with HIV-1) and can also be used with mutant RT enzymes (for example, Y181C, prepared by site-directed mutagenesis in which the tyrosine residue at codon 181 has been replaced by a cysteine residue) in analogous assay conditions. This assay allows compounds to be evaluated for their effectiveness at inhibiting the mutant enzymes.
(§2) Some HIV-1 IIIB clone BH10 RT mutants were provided by Dr. C.-K. Shih (Boehringer Ingelheim Pharmaceutials Inc., U.S.A.) in the vector pKK233-2 (Pharmacia). Briefly an HIV RT clone pKRT2 containing only the RT p66 gene regulated by the lac operon/trc promoter was obtained from Dr. W. Summers (Yale University) (2). A variety of specific amino acid substitutions were introduced into the wild-type RT gene by site-directed mutagenesis. RT clones were subcloned into the pKK233-2 bacterial expression vector. Clones provided included wild-type, Val106Ala, Tyr181Cys, Tyr188Cys, Tyr188Leu, Gly190Ala and Pro236Leu. Others were made in-house by site-directed mutagenesis of the pKK233-2 RT clones including Lys103Asn, Lys103Asn/Tyr181Cys, Lys103Asn/Leu100Ile, Lys103Asn/Pro225His, and Lys103Asn/Val108Ile.
(§3) Purification of recombinant reverse transcriptase was performed using a combination of methods previously described (3). A single colony from a fresh plate of transformed JM109 cells was used to initiate growth of a pre-culture grown o/n at 37° C. Two liters of growth medium were inoculated with this pre-culture. At OD600˜1.5 (5-6 h at 37° C.), RT gene expression was induced with IPTG (1 mM final), and the fermentation was continued for a few more hours at 37° C. After centrifugation, supernatants were discarded while cell pellets were pooled and stored at −80° C. until purification. Cells were thawed at 4° C. overnight and suspended in lysis buffer (MES 50 mM pH 6, EDTA 1 mM, 10% v/v glyerol, 0.02% w/v OBG, 0.02% w/v sodium azide). Lysozyme was added and the mixture was incubated on ice for 40 minutes. After homogenization using a bounce in presence of lysozyme and sonication, the cells were centrifuged for 30 minutes. Supernatant (S1) was saved and stored at 4° C. The centrifuged pellet was resuspended in extraction buffer (MES 50 mM pH 6, KPO4 50 mM pH 6, KCl 100 mM, 10% v/v glycerol, 0.02% w/v OBG, 0.02% w/v sodium axide) and stirred for 30 minutes at 4° C. This second mixture was centrifuged again and the supernatant (S2) was saved. The above procedure was repeated 2 more times saving supernatants S3 and S4 and one last extraction was performed overnight (S5). Polymin P (0.005% final) was added to the combined supernatants to remove nucleic acids. This solution was stirred for 75 minutes at 4° C. and centrifuged for 1 h. The supernatant (SS1) was precipitated on ice with 20% w/v ammonium sulfate and stirred for 1 h at 4° C. The mixture was then centrifuged and the resulting supernatant (SS2) was precipitated with additional 40% w/v ammonium sulfate (60% total), stirred for 1 h and centrifuged again. The final pellet (P1) was stored overnight at 4° C. before undergoing purification the following day. All steps of the purification were performed at 4° C. unless otherwise stated.
(§4) Pellet (P1) was resuspended into MES 50 mM pH 6, KPO4 10 mM pH 6, KCl 100 mM, 10% v/v glycerol, 0.02% w/v OBG, 0.02% w/v sodium azide. The suspension was dialysis against the same buffer overnight using 12-14 kD MWCO dialysis tubing. […]

[2] = target: T2, HIV-1 RT K103N (Human immunodeficiency virus type 1 group M subtype B, UniProt P03366, K702N); experiment: Reverse transcriptase (RT) assay, K103N mutant; format: biochemical
T2 construct: an HIV RT clone pKRT2 containing only the RT p66 gene regulated by the lac operon/trc promoter; made in house; host or cells: E. coli JM109, vector pKK233-2
Excerpt: as §1, §2, §3, §4

[3] = target: T3, HIV-1 RT Y181C (Human immunodeficiency virus type 1 group M subtype B, UniProt P03366, Y780C); experiment: Reverse transcriptase (RT) assay, Y181C mutant; format: biochemical
T3 construct: an HIV RT clone pKRT2 containing only the RT p66 gene regulated by the lac operon/trc promoter; made in house; host or cells: E. coli JM109, vector pKK233-2
Excerpt: as §1, §2, §3, §4

[4] = target: T4, HIV-1 RT V106A (Human immunodeficiency virus type 1 group M subtype B, UniProt P03366, V705A); experiment: Reverse transcriptase (RT) assay, V106A mutant; format: biochemical
T4 construct: an HIV RT clone pKRT2 containing only the RT p66 gene regulated by the lac operon/trc promoter; made in house; host or cells: E. coli JM109, vector pKK233-2
Excerpt: as §1, §2, §3, §4

[5] = target: T5, HIV-1 RT Y188L (Human immunodeficiency virus type 1 group M subtype B, UniProt P03366, Y787L); experiment: Reverse transcriptase (RT) assay, Y188L mutant; format: biochemical
T5 construct: an HIV RT clone pKRT2 containing only the RT p66 gene regulated by the lac operon/trc promoter; made in house; host or cells: E. coli JM109, vector pKK233-2
Excerpt: as §1, §2, §3, §4

[6] = target: T6, HIV-1 RT K103N/Y181C (Human immunodeficiency virus type 1 group M subtype B, UniProt P03366, K702N/Y780C); experiment: Reverse transcriptase (RT) assay, K103N/Y181C mutant; format: biochemical
T6 construct: an HIV RT clone pKRT2 containing only the RT p66 gene regulated by the lac operon/trc promoter; made in house; host or cells: E. coli JM109, vector pKK233-2
Excerpt: as §1, §2, §3, §4

[7] = target: T7, HIV-1 RT K103N/P225H (Human immunodeficiency virus type 1 group M subtype B, UniProt P03366, K702N/P824H); experiment: Reverse transcriptase (RT) assay, K103N/P225H mutant; format: biochemical
T7 construct: an HIV RT clone pKRT2 containing only the RT p66 gene regulated by the lac operon/trc promoter; made in house; host or cells: E. coli JM109, vector pKK233-2
Excerpt: as §1, §2, §3, §4

[8] = target: T8, HIV-1 RT K103N/V108I (Human immunodeficiency virus type 1 group M subtype B, UniProt P03366, K702N/V707I); experiment: Reverse transcriptase (RT) assay, K103N/V108I mutant; format: biochemical
T8 construct: an HIV RT clone pKRT2 containing only the RT p66 gene regulated by the lac operon/trc promoter; made in house; host or cells: E. coli JM109, vector pKK233-2
Excerpt: as §1, §2, §3, §4

[9] = target: T9, HIV-1 RT K103N/L100I (Human immunodeficiency virus type 1 group M subtype B, UniProt P03366, K702N/L699I); experiment: Reverse transcriptase (RT) assay, K103N/L100I mutant; format: biochemical
T9 construct: an HIV RT clone pKRT2 containing only the RT p66 gene regulated by the lac operon/trc promoter; made in house; host or cells: E. coli JM109, vector pKK233-2
Excerpt: as §1, §2, §3, §4

[10] = tested on: HIV coding for wild-type reverse transcriptase (WT RT); experiment: ELISA (p24) assay of HIV replication in C8166 cell culture, wild-type RT virus; format: cell-based, HIV-1; conditions: Human immunodeficiency virus 1, C8166, 72 h, read-out: EC50 WT RT
Procedure: (§5) Compounds of the invention were tested for their ability to inhibit HIV replication in cell culture in a 96-well plate assay. Complete RPMI 1640, consisting of RPMI 1640+10% fetal bovine serum, 10 μg/ml gentamycin and 10 μM β-mercaptoethanol was used for dilution of the compound as well as cell growth medium. The T lymphocyte cell line C8166 was infected at a multiplicity of infection of 0.001 with viruses coding for wild-type and mutant reverse transcriptase. Cells were then incubated for three days in the presence of serial dilutions of the compounds of the invention. The supernatant was pooled from eight replica wells and the concentration of extracellular p24 was determined using a commercially available HIV-1 p24 antigen assay kit (Beckman-Coulter®). The level of inhibition (% inhibition) was calculated with the following equation: [formula]

[11] = tested on: HIV coding for mutant reverse transcriptase K103N; experiment: ELISA (p24) assay of HIV replication in C8166 cell culture, K103N virus; format: cell-based, HIV-1; conditions: Human immunodeficiency virus 1, C8166, 72 h, read-out: EC50 K103N
Procedure: as §5

[12] = tested on: HIV coding for mutant reverse transcriptase Y181C; experiment: ELISA (p24) assay of HIV replication in C8166 cell culture, Y181C virus; format: cell-based, HIV-1; conditions: Human immunodeficiency virus 1, C8166, 72 h, read-out: EC50 Y181C
Procedure: as §5

[13] = tested on: HIV coding for mutant reverse transcriptase V106A; experiment: ELISA (p24) assay of HIV replication in C8166 cell culture, V106A virus; format: cell-based, HIV-1; conditions: Human immunodeficiency virus 1, C8166, 72 h, read-out: EC50 V106A
Procedure: as §5

[14] = tested on: HIV coding for mutant reverse transcriptase K103N/P225H; experiment: ELISA (p24) assay of HIV replication in C8166 cell culture, K103N/P225H virus; format: cell-based, HIV-1; conditions: Human immunodeficiency virus 1, C8166, 72 h, read-out: EC50 K103N/P225H
Procedure: as §5

[15] = tested on: HIV coding for mutant reverse transcriptase K103N/V108I; experiment: ELISA (p24) assay of HIV replication in C8166 cell culture, K103N/V108I virus; format: cell-based, HIV-1; conditions: Human immunodeficiency virus 1, C8166, 72 h, read-out: EC50 K103N/V108I
Procedure: as §5

[16] = tested on: HIV coding for mutant reverse transcriptase K103N/L100I; experiment: ELISA (p24) assay of HIV replication in C8166 cell culture, K103N/L100I virus; format: cell-based, HIV-1; conditions: Human immunodeficiency virus 1, C8166, 72 h, read-out: EC50 K103N/L100I
Procedure: as §5

[17] = target: T10, HIV-1 RT P23L (Human immunodeficiency virus type 1 group M subtype B, UniProt P03366, P835L); experiment: Reverse transcriptase (RT) assay, P23L mutant; format: biochemical
T10 construct: an HIV RT clone pKRT2 containing only the RT p66 gene regulated by the lac operon/trc promoter; made in house; host or cells: E. coli JM109, vector pKK233-2
Excerpt: as §1, §2
Purification of recombinant reverse transcriptase was performed using a combination of methods previously described (3). A single colony from a fresh plate of transformed JM109 cells was used to initiate growth of a pre-culture grown o/n at 37° C. Two liters of growth medium were inoculated with this pre-culture. At OD600˜1.5 (5-6 h at 37° C.), RT gene expression was induced with IPTG (1 mM final), and the fermentation was continued for a few more hours at 37° C. After centrifugation, supernatants were discarded while cell pellets were pooled and stored at −80° C. until purification. Cells were thawed at 4° C. overnight and suspended in lysis buffer (MES 50 mM pH 6, EDTA 1 mM, 10% v/v glyerol, 0.02% w/v OBG, 0.02% w/v sodium azide). Lysozyme was added and the mixture was incubated on ice for 40 minutes. After homogenization using a bounce in presence of lysozyme and sonication, the cells were centrifuged for 30 minutes. Supernatant (S1) was saved and stored at 4° C. […]

[18] = target: T11, HIV-1 RT G190A (Human immunodeficiency virus type 1 group M subtype B, UniProt P03366, G789A); experiment: Reverse transcriptase (RT) assay, G190A mutant; format: biochemical
T11 construct: an HIV RT clone pKRT2 containing only the RT p66 gene regulated by the lac operon/trc promoter; made in house; host or cells: E. coli JM109, vector pKK233-2
Excerpt: as §1, §2, §3, §4

[19] = target: T12, HIV-1 RT Y188C (Human immunodeficiency virus type 1 group M subtype B, UniProt P03366, Y787C); experiment: Reverse transcriptase (RT) assay, Y188C mutant; format: biochemical
T12 construct: an HIV RT clone pKRT2 containing only the RT p66 gene regulated by the lac operon/trc promoter; made in house; host or cells: E. coli JM109, vector pKK233-2
Excerpt: as §1, §2, §3, §4

Row | Compound | IC50 [1] [nM] | IC50 [2] [nM] | IC50 [3] [nM] | IC50 [4] [nM] | IC50 [5] [nM] | IC50 [6] [nM] | IC50 [7] [nM] | IC50 [8] [nM] | IC50 [9] [nM] | EC50 [10] [nM] | EC50 [11] [nM] | EC50 [12] [nM] | EC50 [13] [nM] | EC50 [14] [nM] | EC50 [15] [nM] | EC50 [16] [nM] | IC50 [17] [nM] | IC50 [18] [nM] | IC50 [19] [nM]
1 | CCN1c2ncc(CCOc3cc[n+]([O-])c4ccccc34)cc2C(=O)Nc2c(C)ccnc21 [compound 12, 5,11-Dihydro-11-ethyl-4-methyl-8-{2-{(1-oxido-4-quinolinyl)oxy}ethyl}-6H-dipyrido[3,2-b:2′,3′-e][1,4]diazepin-6-one] | 12 | 31 | 38 | 121 | > 10000 | 212 | 38 | 75 | 124 | 0.26 | 2.8 | 2.7 | 12.4 | 1.5 | 5 | 2.9 | – | – | –
2 | CCN1c2ncc(CCOc3ccnc4ccccc34)cc2C(=O)N(C)c2ccc(Cl)nc21 [compound 2, 2-Chloro-5,11-dihydro-11-ethyl-5-methyl-8-{2-(4-quinolinyloxy)ethyl}-6H-dipyrido[3,2-b:2′,3′-e][1,4]diazepin-6-one] | 5.5 | 28.5 | 25 | 148 | 258 | 24.5 | 27 | 31 | 46 | 2.2 | – | – | – | – | – | – | 50.5 | 14.5 | 7.1

— patent publication US20020028807A1, “Non-nucleoside reverse transcriptase inhibitors” (priority 2000, published 2002)
